The source of these data is patent US10233177B2, “TRPV1 vanilloid receptor antagonists with a bicyclic portion” (Serentrix LLC, priority 2010, dated 2019).

Like-named read-outs stand apart in the source and are kept apart here.

The target in this test is TRPV1 (Rattus norvegicus (Rat), UniProt O35433). Briefly: Ca2+ fluorescence measurements in cultured rat dorsal root ganglia neurons (capsaicin-induced calcium uptake). It counts as cell-based. To be noted: for inhibition at 0.3 µM: DRG neuron.
Chain of TRPV1 (O35433 whole entry): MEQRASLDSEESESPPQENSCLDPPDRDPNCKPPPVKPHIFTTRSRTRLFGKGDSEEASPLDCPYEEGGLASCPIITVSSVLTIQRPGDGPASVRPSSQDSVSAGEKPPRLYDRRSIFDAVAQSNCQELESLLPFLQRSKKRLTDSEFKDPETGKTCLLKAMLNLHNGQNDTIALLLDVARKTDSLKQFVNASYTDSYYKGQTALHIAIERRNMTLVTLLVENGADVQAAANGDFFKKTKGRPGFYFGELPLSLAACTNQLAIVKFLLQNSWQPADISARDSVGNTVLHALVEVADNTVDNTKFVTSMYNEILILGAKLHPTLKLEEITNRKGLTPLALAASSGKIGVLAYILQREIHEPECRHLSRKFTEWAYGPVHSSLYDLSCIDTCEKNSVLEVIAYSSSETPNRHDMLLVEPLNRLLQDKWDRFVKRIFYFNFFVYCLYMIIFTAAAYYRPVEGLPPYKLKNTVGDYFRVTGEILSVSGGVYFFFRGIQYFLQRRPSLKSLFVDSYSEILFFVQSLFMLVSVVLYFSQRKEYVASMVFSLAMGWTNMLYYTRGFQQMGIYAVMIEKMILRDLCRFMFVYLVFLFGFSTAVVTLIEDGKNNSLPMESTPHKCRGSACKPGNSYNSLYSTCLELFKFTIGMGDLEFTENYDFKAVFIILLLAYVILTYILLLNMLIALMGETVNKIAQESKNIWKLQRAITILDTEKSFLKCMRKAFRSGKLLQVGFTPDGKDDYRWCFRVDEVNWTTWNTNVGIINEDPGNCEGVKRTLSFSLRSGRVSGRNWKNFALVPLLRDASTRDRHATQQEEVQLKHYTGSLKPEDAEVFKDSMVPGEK
Setting [1] is: 300 nM, rat DRG neurons, read-out: abolition of capsaicin response at 300 nM.
The mark [2] stands for this setting: Table 1, formula IA-C, 300 nM against calcium uptake induced by 30 nM capsaicin, rat DRG neurons, read-out: % inhibition at 300 nM.
Setting [3] is: capsaicin-induced calcium uptake, rat DRG neurons, read-out: inhibition of the calcium uptake.
The mark [4] stands for this setting: Table 1, against capsaicin-evoked [Ca2+]i mobilization, rat DRG neurons, read-out: IC50.
The mark [5] stands for this setting: Table 3, formula IF-H, 300 nM against calcium uptake induced by 30 nM capsaicin, rat DRG neurons, read-out: % inhibition at 300 nM.

For orientation: IC50 means the concentration at which inhibition is half-maximal. In the case of `CC(C)Oc1cc(C(F)(F)F)ccc1CNC(=O)Nc1cccc2[nH]c(=O)[nH]c12` [Example 67, 1-[[2-isopropoxy-4-(trifluoromethyl)phenyl]methyl]-3-(2-oxo-1,3-dihydrobenzimidazol-4-yl)urea], the inhibition at 0.3 µM reads like this: under setting [1], about 100%; under setting [2], 100%; under setting [3], over 80%. Further, the IC50 under setting [4] was 20 nM.

Usually % inhibition stands for the percentage by which the read-out fell short of the control. Consider `O=C(NCc1ccc(C(F)(F)F)nc1N1CCCC1)Nc1cccc2[nH]c(=O)[nH]c12` [Example 39, 1-(2-oxo-1,3-dihydrobenzimidazol-4-yl)-3-[[2-pyrrolidin-1-yl-6-(trifluoromethyl)-3-pyridyl]methyl]urea], for which the “abolition of capsaicin response at 300 nM” value (300 nM, rat DRG neurons) is recorded as “around 100%”. Also, where the note is “Table 1, formula IA-C, 300 nM against calcium uptake induced by 30 nM capsaicin, rat DRG neurons”, the “% inhibition at 300 nM” value is recorded as 98%. Also, the IC50 under setting [4] is 9.5 nM. Besides, for the setting “capsaicin-induced calcium uptake, rat DRG neurons”, the “inhibition of the calcium uptake” value is reported as “more than 80%”.

Turning to `O=C1COc2cccc(C(=O)NCc3ccc(C(F)(F)F)cc3)c2N1` [Example 62, N-(4-(trifluoromethyl)benzyl)-3,4-dihydro-3-oxo-2H-benzo[b][1,4]oxazine-5-carboxamide], the inhibition at 0.3 µM under setting [5] was found to be 8%.

Turning to `O=C(NCc1ccc(Cl)cc1)Nc1cccc2oc(=O)[nH]c12` [Example 33, 1-(4-chlorobenzyl)-3-(2,3-dihydro-2-oxobenzo[d]oxazol-4-yl)urea], the inhibition at 0.3 µM under setting [2] was 16%.

On to `CN(C)CCOc1cc(C(F)(F)F)ccc1CNC(=O)Nc1cccc2c1OCC(=O)N2` [Example 92, 1-[[2-(2-dimethylaminoethoxy)-4-(trifluoromethyl)phenyl]methyl]-3-(3-oxo-4H-1,4-benzoxazin-8-yl)urea], for which the inhibition at 0.3 µM under setting [2] was found to be 12%.

Take `O=C(NCc1ccc(C(F)(F)F)cc1N1CCCC1)Nc1cccc2oc(=O)[nH]c12` [Example 30, 1-(4-(trifluoromethyl)-2-(pyrrolidin-1-yl)benzyl)-3-(2,3-dihydro-2-oxobenzo[d]oxazol-4-yl)urea]: the inhibition at 0.3 µM under setting [2] came out at 44%.

Consider `Cc1ccc(CNC(=O)Nc2cccc3[nH]c(=O)[nH]c23)c(N2CCCCC2)n1` [Example 40, 1-[[6-methyl-2-(1-piperidyl)-3-pyridyl]methyl]-3-(2-oxo-1,3-dihydrobenzimidazol-4-yl)urea], for which the inhibition at 0.3 µM under setting [2] is 52%.

For `Cc1ccc(CNC(=O)Nc2cccc3[nH]c(=O)[nH]c23)c(N(C)C)c1` [Example 18, 1-(2-(dimethylamino)-4-methylbenzyl)-3-(2,3-dihydro-2-oxo-1H-benzo[d]imidazol-4-yl)urea], the inhibition at 0.3 µM under setting [2] came to 54%.

Take `O=C(NCc1ccc(C(F)(F)F)cc1N1CCCCC1)c1cccc2oc(=O)[nH]c12` [Example 60, N-(4-(trifluoromethyl)-2-(piperidin-1-yl)benzyl)-2,3-dihydro-2-oxobenzo[d]oxazole-4-carboxamide]: the inhibition at 0.3 µM under setting [5] was determined as 8%.

In the case of `O=C1COc2c(cccc2NC(=O)NCc2ccc(Cl)cc2N2CCCCC2)N1` [Example 52, 1-(4-chloro-2-(piperidin-1-yl)benzyl)-3-(3,4-dihydro-3-oxo-2H-benzo[b][1,4]oxazin-8-yl)urea], the inhibition at 0.3 µM is, setting by setting: under setting [1], about 100%; under setting [2], 98%.

For the molecule `Cc1ccc(CNC(=O)Nc2cccc3c2OCC(=O)N3)cc1` [Example 79, 1-(3-oxo-4H-1,4-benzoxazin-8-yl)-3-(p-tolylmethyl)urea], the inhibition at 0.3 µM under setting [2] turned out to be 54%.

On to `O=C(NCc1ccc(C(F)(F)F)cc1-n1cncn1)Nc1cccc2[nH]c(=O)[nH]c12` [Example 8, 1-(4-(trifluoromethyl)-2-(1H-1,2,4-triazol-1-yl)benzyl)-3-(2,3-dihydro-2-oxo-1H-benzo[d]imidazol-4-yl)urea], for which the inhibition at 0.3 µM under setting [2] turned out to be 2%.

For `CC(C)(C)c1ccc(CNC(=O)Nc2cccc3[nH]c(=O)[nH]c23)c(Cl)c1` [Example 74, 1-[(4-tert-butyl-2-chloro-phenyl)methyl]-3-(2-oxo-1,3-dihydrobenzimidazol-4-yl)urea], the inhibition at 0.3 µM by setting is: under setting [1], about 100%; under setting [2], 100%; under setting [3], over 80%.

In the case of `O=C1COc2cccc(OC(=O)NCc3ccc(C(F)(F)F)cc3)c2N1` [Example 65, 3,4-dihydro-3-oxo-2H-benzo[b][1,4]oxazin-5-yl 4-(trifluoromethyl)benzylcarbamate], the inhibition at 0.3 µM (read-out: % inhibition at 300 nM) was determined as 4%.

As for `O=C(NCc1ccc(Cl)cc1C(F)(F)F)Nc1cccc2oc(=O)[nH]c12` [Example 28, 1-(4-chloro-2-(trifluoromethyl)benzyl)-3-(2,3-dihydro-2-oxobenzo[d]oxazol-4-yl)urea], the inhibition at 0.3 µM under setting [2] stood at 40%.

In the case of `O=C(NCc1ccc(C(F)(F)F)cc1F)Nc1cccc2[nH]c(=O)[nH]c12` [Example 2, 1-(2-fluoro-4-(trifluoromethyl)benzyl)-3-(2,3-dihydro-2-oxo-1H-benzo[d]imidazol-4-yl)urea], the inhibition at 0.3 µM under setting [2] amounted to 28%.

Take `O=C1COc2cccc(C(=O)NCc3ccc(C(F)(F)F)cc3N3CCCCC3)c2N1` [Example 63, N-(4-(trifluoromethyl)-2-(piperidin-1-yl)benzyl)-3,4-dihydro-3-oxo-2H-benzo[b][1,4]oxazine-5-carboxamide]: the inhibition at 0.3 µM under setting [5] was 79%.

For `O=C(NCc1ccc(C(F)(F)F)cc1)Nc1cccc2[nH]c(=O)oc12` [Example 34, 1-(4-(trifluoromethyl)benzyl)-3-(2,3-dihydro-2-oxobenzo[d]oxazol-7-yl)urea], the inhibition at 0.3 µM under setting [2] came to 19%.

`CN(C)CCOc1nc(C(F)(F)F)ccc1CNC(=O)Nc1cccc2[nH]c(=O)[nH]c12` [Example 72, 1-[[2-(2-dimethylaminoethoxy)-6-(trifluoromethyl)-3-pyridyl]methyl]-3-(2-oxo-1,3-dihydrobenzimidazol-4-yl)urea]: the inhibition at 0.3 µM under setting [2] worked out at 40%. Also, the 50% inhibitory concentration (IC50) under setting [4] was found to be 6 nM.

On to `O=C1COc2c(cccc2NC(=O)NCc2ccc(C(F)(F)F)nc2N2CCCCC2)N1` [Example 78, 1-(3-oxo-4H-1,4-benzoxazin-8-yl)-3-[[2-(1-piperidyl)-6-(trifluoromethyl)-3-pyridyl]methyl]urea], for which the inhibition at 0.3 µM is about 100% under setting [1], 100% under setting [2] and over 80% under setting [3]. In addition, the IC50 (rat DRG neurons, read-out: IC50 against capsaicin-evoked [Ca2+]i mobilization) worked out at 0.61 nM.

On to `Cc1ccc(CNC(=O)Nc2cccc3c2OCC(=O)N3)c(N2CCCCC2)n1` [Example 80, 1-[[6-methyl-2-(1-piperidyl)-3-pyridyl]methyl]-3-(3-oxo-4H-1,4-benzoxazin-8-yl)urea], for which the inhibition at 0.3 µM is, setting by setting: under setting [1], about 100%; under setting [2], 95%; under setting [3], over 80%.

With `O=C(NCc1ccc(Cl)cc1N1CCC(O)C1)Nc1cccc2[nH]c(=O)[nH]c12` (stereo not shown) [Example 22, 1-(4-chloro-2-(3-hydroxypyrrolidin-1-yl)benzyl)-3-(2,3-dihydro-2-oxo-1H-benzo[d]imidazol-4-yl)urea], the inhibition at 0.3 µM under setting [2] was 48%.

For `CC(C)(C)c1ccc(CNC(=O)Nc2cccc3[nH]c(=O)[nH]c23)cc1` [Example 70, 1-[(4-tert-butylphenyl)methyl]-3-(2-oxo-1,3-dihydrobenzimidazol-4-yl)urea], the inhibition at 0.3 µM reads like this: under setting [1], about 100%; under setting [2], 98%; under setting [3], over 80%.

Take `CC(C)Oc1nc(C(F)(F)F)ccc1CNC(=O)Nc1cccc2[nH]c(=O)[nH]c12` [Example 68, 1-[[2-isopropoxy-6-(trifluoromethyl)-3-pyridyl]methyl]-3-(2-oxo-1,3-dihydrobenzimidazol-4-yl)urea]: the inhibition at 0.3 µM runs as follows: under setting [2], 93%; under setting [3], over 80%.

As to `O=C1COc2c(cccc2NC(=O)NCc2ccc(C(F)(F)F)nc2)N1` [Example 77, 1-(3-oxo-4H-1,4-benzoxazin-8-yl)-3-[[6-(trifluoromethyl)-3-pyridyl]methyl]urea], the inhibition at 0.3 µM under setting [2] was 71%.

With `CN(C)c1cc(Cl)ccc1CNC(=O)Nc1cccc2c1OCC(=O)N2` [Example 50, 1-(4-chloro-2-(dimethylamino)benzyl)-3-(3,4-dihydro-3-oxo-2H-benzo[b][1,4]oxazin-8-yl)urea], the inhibition at 0.3 µM under setting [2] was 52%.

Regarding `COc1cc(CNC(=O)CCCC/C=C/C(C)C)ccc1O` [Capsaicin, capsaicin, reference compound], where the note is “capsaicin 0.3 μM”, the “dorsal root ganglia neurons with increase in [Ca2+]” value was 95%.

As for `O=C(Cc1ccc(C(F)(F)F)cc1)Nc1cccc2c1NC(=O)CO2` [Example 58, 2-(4-(trifluoromethyl)phenyl)-N-(3,4-dihydro-3-oxo-2H-benzo[b][1,4]oxazin-5-yl)acetamide], the inhibition at 0.3 µM (Table 2, formula ID-E, 300 nM against calcium uptake induced by 30 nM capsaicin, rat DRG neurons, read-out: % inhibition at 300 nM) came to 43%.

As for `Cc1ccc(CNC(=O)Nc2cccc3c2OCC(=O)N3)c(OC(C)C)n1` [Example 85, 1-[(2-isopropoxy-6-methyl-3-pyridyl)methyl]-3-(3-oxo-4H-1,4-benzoxazin-8-yl)urea], the inhibition at 0.3 µM under setting [2] was 79%.

For the molecule `O=C(NCc1ccc(C(F)(F)F)cc1N1CCCC1)Nc1cccc2[nH]c(=O)oc12` [Example 35, 1-(4-(trifluoromethyl)-2-(pyrrolidin-1-yl)benzyl)-3-(2,3-dihydro-2-oxobenzo[d]oxazol-7-yl)urea], the inhibition at 0.3 µM by setting is: under setting [2], 90%; under setting [3], over 80%.

For `Cc1ccc(CNC(=O)Nc2cccc3[nH]c(=O)[nH]c23)c(N2CCCCC2)c1` [Example 19, 1-(4-methyl-2-(piperidin-1-yl)benzyl)-3-(2,3-dihydro-2-oxo-1H-benzo[d]imidazol-4-yl)urea], the inhibition at 0.3 µM is, setting by setting: under setting [1], about 100%; under setting [2], 99%; under setting [3], over 80%.
